According to patent US12115193B2, “Methods of using RARγ agonists for cancer treatment” (Io Therapeutics, Inc., priority 2021, dated 2024):

Assays:
RARγ = biological target: T1, RARγ (Homo sapiens, UniProt P13631); assay: RARγ transactivation assay (luciferase reporter); type: cell-based; details: at all tested concentrations (0.5 to 625 nM); receptor not given
T1 construct: expression plasmids encoding the full-length receptors RARα and RARγ; expressed in transfected cells
T1 sequence (P13631 1-454): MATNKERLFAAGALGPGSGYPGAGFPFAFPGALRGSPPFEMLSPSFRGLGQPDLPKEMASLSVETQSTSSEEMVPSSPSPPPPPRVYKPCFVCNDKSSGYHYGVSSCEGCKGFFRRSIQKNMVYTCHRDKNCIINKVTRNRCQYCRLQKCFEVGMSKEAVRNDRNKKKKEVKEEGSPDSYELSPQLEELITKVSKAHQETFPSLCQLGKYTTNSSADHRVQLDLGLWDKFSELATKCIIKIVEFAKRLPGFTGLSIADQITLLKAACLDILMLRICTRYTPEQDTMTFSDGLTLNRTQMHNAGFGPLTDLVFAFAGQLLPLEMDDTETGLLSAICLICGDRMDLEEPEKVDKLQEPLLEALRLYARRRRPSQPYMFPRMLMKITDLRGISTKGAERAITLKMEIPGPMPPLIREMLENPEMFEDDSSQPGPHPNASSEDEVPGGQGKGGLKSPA
Protocol: Transactivation assays were conducted to test the specificity of binding activity of GA1E and GA2E for RARα and RARγ. Retinoic acid receptor transactivation activity and binding efficiencies were determined essentially as described in U.S. Pat. Nos. 5,298,429 and 5,071,773, incorporated by reference herein for all they teach regarding transactivation assays. Transactivation assays employed expression plasmids encoding the full-length receptors RARα and RARγ. Reporter plasmids containing the herpes virus thymidine kinase promoter and the appropriate retinoic acid receptor response element (RAREs) were positioned upstream of an open coding region encoding firefly luciferase.
The ability of GA1E and GA2E to activate RARα and RARγ in a transactivation assay was tested over a concentration range of 0.5 to 625 nM (GA2E) or 0.05 to 3320 nM (GA1E). GA1E induced less than 10% transactivation for RARα across the whole concentration range, but over 50% transactivation for RARγ at concentrations ≥25 nM and over 70% at concentrations 125 nM (FIG. 3A). GA2E induced more than 85% transactivation at all tested concentrations and less than 10% transactivation of RARα at concentrations of ≤25 nM (FIG. 3B).

EMT6 cells [1] = assay: EMT6 syngeneic mouse model of triple negative breast cancer (Example 3); type: in vivo; details: 21 daily oral doses 10 mg/kg; at the end of the study
Protocol: The RARγ agonists tazarotenic acid and GA2E were evaluated in the EMT6 syngeneic mouse model of breast cancer. 5×10^5 EMT6 cells were injected into the mammary fat pad of immunocompetent female Balb/c mice. When the tumors reached an average volume of 50-150 mm^3, mice were matched by tumor size into control or treatment groups (n=10-11).
The mice were treated with 21 daily oral doses 10 mg/kg of 1 mg/ml tazarotenic acid or GA2E, or vehicle control, starting on Day 0. Tumor volume was measured, and the mice weighed, on days 0, 1, 3, 6, 8, 10, 13, 15, 17, 20, and 21.

EMT6 cells [2] = assay: EMT6 triple negative breast cancer model, various dosages (Example 5); type: in vivo, mouse
Excerpt: The EMT6 triple negative breast cancer model, essentially as described above, was used to assess the effects of increased dosages of GA2E. The mice were orally administered 10 (n=10), 25 (n=10), or 50 (n=11) mg/kg of GA2E, or vehicle control (n=10) daily for 17 days. […] Two mice in the vehicle control group were terminated at Day 12 with tumors >1500 mm^3.

PBMC = assay: CMV recall antigen-stimulated PBMC: IFNγ production and CFSE proliferation; type: cell-based; details: four days, vs vehicle control
Protocol: Peripheral blood mononuclear cells (PBMC) from a cytomegalovirus (CMV)-positive donor were labeled with carboxyfluorescein succinimidyl ester (CFSE) and stimulated with CMV recall antigens at […]. The PBMC were then treated with one of three difference RARγ selective agonists or vehicle (DMSO) control and incubated at 37° C., 5% CO2 for four days. Culture supernatant was harvested and assayed for IFNγ production and the PBMC evaluated for proliferation by flow cytometry for CFSE dilution.
CFSE is a fluorescent reactive cell membrane permeable dye. After it is taken up, CFSE covalently modifies proteins and is retained in cells for long periods of time. The CFSE-modified proteins are generally evenly divided between daughter cells at each division so that fluorescent intensity of the cells falls by have at each division. Thus diminution of the dye's fluorescent signal can be used as a measure of proliferation.

EMT6 cells [3] = assay: EMT6 in vitro culture viability, Cell Titer Glo Assay; type: cell-based, mouse; details: 5 days
Protocol: EMT6 cells were cultured in vitro for 5 days the presence of a multiple concentrations of the RARγ agonists GA1E, GA2E, and GA3Ep and viability assessed by the Cell Titer Glo Assay® (Promega).

LLC cells = assay: LLC syngeneic model in C57BL/6 mice (Example 10); type: in vivo
Protocol: The LLC model is based on an epidermoid carcinoma of the lung that spontaneously arose in a C57BL/6 mouse some 70 years ago, Syngeneic models have been useful in predicting clinical benefit. C57BL/6 mice, 6-8 weeks old, were injected subcutaneously in the left flank with 0.1 mL containing 3×10^5 LLC cells. When tumors reached an average tumor volume of 50-150 mm^3, the mice were matched by tumor size and sorted into control and treatment groups, and dosing initiated (Day 0). Three groups of 10 mice each were established: vehicle control, 10 mg/kg GA2E, and 25 mg/kg GA2E. The mice received one oral dose per day for 13 days. Tumor volumes and weight were measured on days 0, 2, 4, 6, 9, 11, and 13. This study was ended on Day 13, as the average tumor volume was >1500 mm^3, and the tumors analyzed by flow cytometry. Two animals in the 10 mg/kg group and one animal in the 25 mg/kg group were terminated early due to ulceration of the tumor.

[4] = 10 mg/kg oral daily for 13 days
[5] = 25 mg/kg oral daily for 13 days

## CC1(C)CCC(C)(C)c2cc(C(/C=C/c3ccc(C(=O)O)cc3F)=N/O)ccc21 [GA2E, 3-fluoro-4-((1E,3E)-3-(hydroxyimino)-3-(5,5,8,8-tetramethyl-5,6,7,8-tetrahydronaphthalen-2-yl)prop-1-en-1-yl)benzoic acid]
RARγ
  transactivation: more than 85%
EMT6 cells [1]
  tumor growth inhibition: 63%
EMT6 cells [2]; 10 mg/kg oral daily for 17 days
  tolerability: acceptably well-tolerated
EMT6 cells [2]; 25 mg/kg group (n=10), oral daily
  mice terminated for excessive weight loss: one mouse
EMT6 cells [2]; 25 mg/kg oral daily
  inhibiting tumor growth, 25 mg/kg dosage versus 10 mg/kg dosage: somewhat more effective
EMT6 cells [2]; 25 mg/kg oral daily for 17 days
  tolerability: acceptably well-tolerated
EMT6 cells [2]; 25 mg/kg, only a short excursion
  weight loss: more than 10%
EMT6 cells [2]; 50 mg/kg oral daily (n=11)
  mice terminated for excessive weight loss: terminated for excessive weight loss not later than Day 12
EMT6 cells [2]; 50 mg/kg, limited time in the study (to Day 12)
  tumor inhibition by the 50 mg/kg dosage versus the other dosages: not clearly different
PBMC; 0.1 to 1000 nM
  IFNγ production: increased IFNγ production substantially
PBMC; increase small
  Proliferation of CD8+ cells (CFSE dilution): increased
EMT6 cells [3]
  effect on viability as concentrations exceeded 10 μM: rapidly became toxic
  effect on viability at concentrations below 1 μM: no effect
EMT6 cells [3]; Mus musculus, 120 h
  IC50: 19 µM
LLC cells; [4]
  tolerability: well tolerated
  tumor growth: inhibited tumor growth
  weight loss over the course of the study: minimal weight loss
LLC cells; [5]
  tolerability: less well tolerated
  tumor growth: inhibited tumor growth
LLC cells; 25 mg/kg oral daily, by about Day 10
  weight loss: exceeding 10%
